ChEMBL document CHEMBL4406836, “The design of a cell-selective fowlicidin-1-derived peptide with both antimicrobial and anti-inflammatory activities” (Eur J Med Chem, 2019)
≈ marks a conversion by molar mass, not a printed value. Calls of active or inactive are those of the source. The calls are words filed in the database; no cut-off is given here.

How the values were obtained:
Pseudomonas aeruginosa [1] = type: functional; conditions: CCARM 2095, 72 h
Pseudomonas aeruginosa [2] = experiment: Potentiation of chloramphenicol-induced antibacterial activity against mutidrug-resistant Pseudomonas aeruginosa CCARM 2095 assessed as reduction in chloramphenicol MIC at 1/16th MIC incubated for 72 hrs by spectrophotometry; type: functional
Staphylococcus aureus [3] = experiment: Induction of cytoplasmic membrane depolarization in Staphylococcus aureus at 2 times of MIC for a period of 600 sec by DiSC3-5-fluorescence based assay; type: functional, organism-based
Pseudomonas aeruginosa [4] = experiment: Potentiation of ciprofloxacin-induced antibacterial activity against mutidrug-resistant Pseudomonas aeruginosa CCARM 2095 assessed as reduction in ciprofloxacin MIC at 1/16th MIC incubated for 72 hrs by spectrophotometry; type: functional
Staphylococcus aureus [5] = experiment: Antibacterial activity against methicillin-resistant Staphylococcus aureus CCARM 3089 assessed as reduction in bacterial growth incubated for 72 hrs in presence of 128 uM chloramphenicol by spectrophotometry; type: functional; conditions: CCARM 3089, 72 h
Staphylococcus aureus [6] = experiment: Potentiation of ciprofloxacin-induced antibacterial activity against methicillin-resistant Staphylococcus aureus CCARM 3089 assessed as reduction in ciprofloxacin MIC at 1/16th MIC incubated for 72 hrs by spectrophotometry; type: functional
Staphylococcus aureus [7] = experiment: (§1) Fractional inhibitory concentration index, sum of ratio of MIC of compound in presence of […] uM oxacillin to MIC of oxacillin and ratio of MIC of compound in presence of oxacillin to MIC of oxacillin for antibacterial activity against methicillin-resistant Staphylococcus aureus CCARM 3089; type: functional
Staphylococcus aureus [8] = experiment: Potentiation of oxacillin-induced antibacterial activity against methicillin-resistant Staphylococcus aureus CCARM 3089 assessed as reduction in oxacillin MIC at 1/16th MIC incubated for 72 hrs by spectrophotometry; type: functional
Staphylococcus aureus [9] = experiment: Fractional inhibitory concentration, ratio of MIC of compound in presence of ciprofloxacin to MIC of ciprofloxacin for antibacterial activity against methicillin-resistant Staphylococcus aureus CCARM 3089; type: functional
Staphylococcus aureus [10] = experiment: Fractional inhibitory concentration, ratio of MIC of compound in presence of […] uM ciprofloxacin to MIC of ciprofloxacin for antibacterial activity against methicillin-resistant Staphylococcus aureus CCARM 3089; type: functional
Staphylococcus aureus [11] = experiment: Potentiation of chloramphenicol-induced antibacterial activity against methicillin-resistant Staphylococcus aureus CCARM 3089 assessed as reduction in chloramphenicol MIC at 1/16th MIC incubated for 72 hrs by spectrophotometry; type: functional
Pseudomonas aeruginosa [12] = experiment: Fractional inhibitory concentration, ratio of MIC of compound in presence of chloramphenicol to MIC of compound for antibacterial activity against multidrug-resistant Pseudomonas aeruginosa CCARM 2095; type: functional
Pseudomonas aeruginosa [13] = type: functional; conditions: CCARM 2095, 72 h; remark: listed apart in the source
Staphylococcus aureus [14] = experiment: Fractional inhibitory concentration index, sum of ratio of MIC of compound in presence of 128 uM chloramphenicol to MIC of chloramphenicol and ratio of MIC of compound in presence of chloramphenicol to MIC of chloramphenicol for antibacterial activity against methicillin-resistant Staphylococcus aureus CCARM 3089; type: functional
Staphylococcus aureus [15] = experiment: Induction of cytoplasmic membrane depolarization in Staphylococcus aureus at 2 times of MIC within 4 mins by SYTOX green-based assay; type: functional, organism-based
Pseudomonas aeruginosa [16] = experiment: Potentiation of oxacillin-induced antibacterial activity against mutidrug-resistant Pseudomonas aeruginosa CCARM 2095 assessed as reduction in oxacillin MIC at 1/16th MIC incubated for 72 hrs by spectrophotometry; type: functional
Staphylococcus aureus [17] = experiment: as §1, with “ciprofloxacin” for “oxacillin”; type: functional
Enterococcus faecium = experiment: Antibacterial activity against vancomycin-resistant Enterococcus faecium ATCC 51559 assessed as reduction in bacterial growth incubated for 18 hrs by spectrophotometry based microtiter broth dilution method; type: functional; conditions: ATCC 51559, 18 h
Staphylococcus aureus [18] = type: functional; conditions: CCARM 3089, 72 h
Staphylococcus aureus [19] = experiment: Fractional inhibitory concentration, ratio of MIC of compound in presence of 128 uM chloramphenicol to MIC of chloramphenicol for antibacterial activity against methicillin-resistant Staphylococcus aureus CCARM 3089; type: functional
Staphylococcus aureus [20] = type: functional; conditions: CCARM 3089, 72 h; remark: listed apart in the source
Pseudomonas aeruginosa [21] = experiment: Fractional inhibitory concentration, ratio of MIC of compound in presence of […] uM oxacillin to MIC of oxacillin for antibacterial activity against multidrug-resistant Pseudomonas aeruginosa CCARM 2095; type: functional
Staphylococcus aureus [22] = experiment: Antibacterial activity against methicillin-resistant Staphylococcus aureus CCARM 3089 assessed as reduction in bacterial growth incubated for 72 hrs by spectrophotometry; type: functional; conditions: CCARM 3089, 72 h
Pseudomonas aeruginosa [23] = experiment: Fractional inhibitory concentration, ratio of MIC of compound in presence of […] uM chloramphenicol to MIC of chloramphenicol for antibacterial activity against multidrug-resistant Pseudomonas aeruginosa CCARM 2095; type: functional
Staphylococcus aureus [24] = experiment: Antibacterial activity against methicillin-resistant Staphylococcus aureus CCARM 3095 assessed as reduction in bacterial growth incubated for 18 hrs by spectrophotometry based microtiter broth dilution method; type: functional; conditions: CCARM 3095, 18 h
Pseudomonas aeruginosa [25] = type: functional; conditions: CCARM 2095, 72 h; remark: listed apart in the source
Staphylococcus aureus [26] = experiment: Fractional inhibitory concentration, ratio of MIC of compound in presence of chloramphenicol to MIC of chloramphenicol for antibacterial activity against methicillin-resistant Staphylococcus aureus CCARM 3089; type: functional
Pseudomonas aeruginosa [27] = experiment: Antibacterial activity against multidrug-resistant Pseudomonas aeruginosa CCARM 2095 assessed as reduction in bacterial growth incubated for 72 hrs by spectrophotometry; type: functional; conditions: CCARM 2095, 72 h
Pseudomonas aeruginosa [28] = experiment: Fractional inhibitory concentration index, sum of ratio of MIC of compound in presence of […] uM chloramphenicol to MIC of chloramphenicol and ratio of MIC of compound in presence of chloramphenicol to MIC of compound for antibacterial activity against multidrug-resistant Pseudomonas aeruginosa CCARM 2095; type: functional
Staphylococcus aureus [29] = experiment: Fractional inhibitory concentration, ratio of MIC of compound in presence of […] uM oxacillin to MIC of oxacillin for antibacterial activity against methicillin-resistant Staphylococcus aureus CCARM 3089; type: functional
Staphylococcus aureus [30] = experiment: Fractional inhibitory concentration, ratio of MIC of compound in presence of oxacillin to MIC of oxacillin for antibacterial activity against methicillin-resistant Staphylococcus aureus CCARM 3089; type: functional
Pseudomonas aeruginosa [31] = experiment: Antibacterial activity against multidrug-resistant Pseudomonas aeruginosa CCARM 2109 assessed as reduction in bacterial growth incubated for 18 hrs by spectrophotometry based microtiter broth dilution method; type: functional; conditions: CCARM 2109, 18 h
Staphylococcus aureus [32] = experiment: Antibacterial activity against methicillin-resistant Staphylococcus aureus CCARM 3089 assessed as reduction in bacterial growth incubated for 18 hrs by spectrophotometry based microtiter broth dilution method; type: functional; conditions: CCARM 3089, 18 h
Pseudomonas aeruginosa [33] = experiment: Fractional inhibitory concentration index, sum of ratio of MIC of compound in presence of […] and ratio of MIC of compound in presence of oxacillin to MIC of compound for antibacterial activity against multidrug-resistant Pseudomonas aeruginosa CCARM 2095; type: functional
Staphylococcus aureus [34] = experiment: Antibacterial activity against methicillin-resistant Staphylococcus aureus CCARM 3090 assessed as reduction in bacterial growth incubated for 18 hrs by spectrophotometry based microtiter broth dilution method; type: functional; conditions: CCARM 3090, 18 h
Pseudomonas aeruginosa [35] = experiment: Antibacterial activity against multidrug-resistant Pseudomonas aeruginosa CCARM 2095 assessed as reduction in bacterial growth incubated for 18 hrs by spectrophotometry based microtiter broth dilution method; type: functional; conditions: CCARM 2095, 18 h

Molecule | MIC (Pseudomonas aeruginosa [1]) [µM] | fold change (FC) (Pseudomonas aeruginosa [2]) | Activity (Staphylococcus aureus [3]) | fold change (FC) (Pseudomonas aeruginosa [4]) | MIC (Staphylococcus aureus [5]) [µM] | fold change (FC) (Staphylococcus aureus [6]) | fractional inhibitory concentration index (FICI) (Staphylococcus aureus [7]) | fold change (FC) (Staphylococcus aureus [8]) | FIC (Staphylococcus aureus [9]) | FIC (Staphylococcus aureus [10]) | fold change (FC) (Staphylococcus aureus [11]) | FIC (Pseudomonas aeruginosa [12]) | MIC (Pseudomonas aeruginosa [13]) [µM] | fractional inhibitory concentration index (FICI) (Staphylococcus aureus [14]) | Activity (Staphylococcus aureus [15]) | fold change (FC) (Pseudomonas aeruginosa [16]) | fractional inhibitory concentration index (FICI) (Staphylococcus aureus [17]) | MIC (Enterococcus faecium) [µM] | MIC (Staphylococcus aureus [18]) [µM] | FIC (Staphylococcus aureus [19]) | also measured
H-LVIRWVRAGYKLYRAIKKK-NH2 | 32 | 4 - 16 | Active | 4 - 16 | 16 | 4 - 32 | 0.5 | 4 - 32 | 0.125 | 0.25 | 4 - 32 | 0.25 | 128 | 0.25 | Active | 4 - 16 | 0.375 | 4 | 256 | 0.125 | MIC (Staphylococcus aureus [20]): 128 µM; FIC (Pseudomonas aeruginosa [21]): 0.25; MIC (Staphylococcus aureus [22]): 4 µM; FIC (Pseudomonas aeruginosa [23]): 0.031; MIC (Staphylococcus aureus [24]): 2 µM; MIC (Pseudomonas aeruginosa [25]): 64 µM; FIC (Staphylococcus aureus [26]): 0.125; MIC (Pseudomonas aeruginosa [27]): 2 µM; fractional inhibitory concentration index (FICI) (Pseudomonas aeruginosa [28]): 0.281; FIC (Staphylococcus aureus [29]): 0.25; FIC (Staphylococcus aureus [30]): 0.25; MIC (Pseudomonas aeruginosa [31]): 4 µM; MIC (Staphylococcus aureus [32]): 4 µM; fractional inhibitory concentration index (FICI) (Pseudomonas aeruginosa [33]): 0.5; MIC (Staphylococcus aureus [34]): 2 µM; MIC (Pseudomonas aeruginosa [35]): 2 µM
CC[C@H](C)[C@H](NC(=O)[C@H](CCCCN)NC(=O)[C@H](CCC(=O)O)NC(=O)[C@H](CCCCN)NC(=O)[C@H](CO)NC(=O)[C@H](CCCCN)NC(=O)[C@H](CCCNC(=N)N)NC(=O)[C@H](Cc1ccccc1)NC(=O)[C@H](Cc1ccccc1)NC(=O)[C@H](CC(=O)O)NC(=O)CNC(=O)[C@H](CC(C)C)NC(=O)[C@@H](N)CC(C)C)C(=O)NCC(=O)N[C@@H](CCCCN)C(=O)N[C@@H](CCC(=O)O)C(=O)N[C@@H](Cc1ccccc1)C(=O)N[C@@H](CCCCN)C(=O)N[C@@H](CCCNC(=N)N)C(=O)N[C@H](C(=O)N[C@H](C(=O)N[C@@H](CCC(N)=O)C(=O)N[C@@H](CCCNC(=N)N)C(=O)N[C@H](C(=O)N[C@@H](CCCCN)C(=O)N[C@@H](CC(=O)O)C(=O)N[C@@H](Cc1ccccc1)C(=O)N[C@@H](CC(C)C)C(=O)N[C@@H](CCCNC(=N)N)C(=O)N[C@@H](CC(N)=O)C(=O)N[C@@H](CC(C)C)C(=O)N[C@H](C(=O)N1CCC[C@H]1C(=O)N[C@@H](CCCNC(=N)N)C(=O)N[C@H](C(=O)N[C@@H](CCC(=O)O)C(=O)N[C@@H](CO)C(=O)O)[C@@H](C)O)C(C)C)[C@@H](C)CC)C(C)C)[C@@H](C)CC [CATHELICIDIN] | 256 (≈ 1150 µg/mL) | 2 - 4 | Active | 2 - 4 | 64 | 2 - 16 | 0.75 | 2 - 16 | 1 | 0.25 | 2 - 16 | 0.5 | 512 (≈ 2300 µg/mL) | 1 | Active | 2 - 4 | 1.25 | 8 (≈ 35.9 µg/mL) | 256 (≈ 1150 µg/mL) | 0.5 | MIC (Staphylococcus aureus [20]): 256 µM (≈ 1150 µg/mL); FIC (Pseudomonas aeruginosa [21]): 1; MIC (Staphylococcus aureus [22]): 8 µM (≈ 35.9 µg/mL); FIC (Pseudomonas aeruginosa [23]): 0.25; MIC (Staphylococcus aureus [24]): 16 µM (≈ 71.9 µg/mL); MIC (Pseudomonas aeruginosa [25]): 128 µM (≈ 575 µg/mL); FIC (Staphylococcus aureus [26]): 0.5; MIC (Pseudomonas aeruginosa [27]): 4 µM (≈ 18 µg/mL); fractional inhibitory concentration index (FICI) (Pseudomonas aeruginosa [28]): 0.75; FIC (Staphylococcus aureus [29]): 0.5; FIC (Staphylococcus aureus [30]): 0.25; MIC (Pseudomonas aeruginosa [31]): 8 µM (≈ 35.9 µg/mL); MIC (Staphylococcus aureus [32]): 8 µM (≈ 35.9 µg/mL); fractional inhibitory concentration index (FICI) (Pseudomonas aeruginosa [33]): 2; MIC (Staphylococcus aureus [34]): 4 µM (≈ 18 µg/mL); MIC (Pseudomonas aeruginosa [35]): 4 µM (≈ 18 µg/mL)
